For assay [1], the system named is AMO-1 cells. Briefly: Antiproliferation assay AMO-1 (Assay 7). The class given is cell-based. In a few lines: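 Anti-proliferative effect was measured by CellTiter-Glo ATP luminescence after 72 h compound exposure at 37° C, following overnight plating. IC50s were derived using a parallel time-zero plate and DMSO-treated controls as reference points.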
The test system of assay [2] is SUDHL10 cells. Briefly: Induction of caspase-3/7 activity in SUDHL10 cells (Assay 4). The class given is cell-based. The method in brief:
(§1)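 Read-out: Caspase-Glo 3/7 luminescence (1 h, 37 °C) after cells, plated overnight, were treated with compounds for 3 h at 37 °C. Signal corrected for cell-free medium background and expressed relative to DMSO control mean.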

Assay [3] concerns the target BCL-2 (Homo sapiens (Human), UniProt P10415). Briefly: Protein-protein interaction assay BCL-2/Bad BH3 peptide (BCL-2 assay, TR-FRET). The class given is binding. The following applies: read-out: BCL-2 Assay IC50 (median). As to the method: Assay 3 Protein-Protein Interaction Assay: BCL-2/Bad BH3 Peptide (BCL-2 Assay)
The dose-dependent inhibition by the compounds described in this invention of the interaction between BCL-2 and the BH3 domain of Bad (both human) was determined using a steady state binding competition assay with time-resolved fluorescence energy transfer (TR-FRET) readout. For that purpose BCL-2 (amino acids 1-211, C-terminal fused to a hexahistidine (6×His) tag (SEQ ID 5) and a synthetic Bad BH3-derived peptide of sequence Biotin-PEG2-PEG2-[…]-Nle-[…]-amide (SEQ ID 4) served as protein receptor and tracer ligand respectively. The recombinant BCL-2 protein (expressed in E. coli) was purchased from BPS Bioscience (San Diego, Calif., USA). The Bad BH3-derived peptide can be obtained from e.g. Biosyntan (Berlin, Germany).
In the assay 11 different concentrations of each compound (0.1 nM, 0.33 nM, 1.1 nM, 3.8 nM, 13 nM, 44 nM, 0.15 μM, 0.51 μM, 1.7 μM, 5.9 μM and 20 μM) were typically measured as duplicates in the same microtiter plate. For that, 100-fold concentrated DMSO solutions were prepared by serial dilutions (1:3.4) of a 2 mM stock solution in a clear, 384-well microtiter plate (Greiner Bio-One, Frickenhausen, Germany). From there, 50 nl were transferred in a dark test plate (Greiner Bio-One, Frickenhausen, Germany). The assay was initiated by addition of 2 μL of a 2,5-fold concentrated His-BCL-2 solution (usually for a 1 nM end concentration in 5 μL reaction volume) in aqueous assay buffer [50 mM Tris/HCl pH 7, 100 mM sodium chloride (NaCl), 50 mM potassium fluoride (KF), 0.005% Tween-20, 2 mM DTT, 0.1% bovine gamma globulin (BGG)] to the compounds in the assay plate. This was followed by a 10-minute incubation step at 22° C. for pre-equilibration of the putative complex between His-BCL-2 and the compounds. After that, 3 μL of a 1.67-fold concentrated solution (in assay buffer) consisting of Bad BH3-derived peptide (1 nM end concentration) and TR-FRET detection reagents [1.67 nM anti-His-Eu cryptate and 1.67 nM streptavidin-XL665 (both from Cisbio Bioassays, Codolet, France)], were added.
The mixture was incubated in the dark for one hour at 22° C. and then overnight at 4° C. The formation of BCL-2/Bad complexes was determined by measuring the resonance energy transfer of the anti-His-Eu-cryptate antibody to the streptavidin-XL665 present in the reaction. For that purpose, the fluorescence emission at 620 nm and 665 nm after excitation at 330-350 nm was measured in a TR-FRET measuring instrument, for instance a Rubystar or a Pherastar (both from BMG Lab Technologies, Offenburg, Germany) or a Viewlux (Perkin-Elmer). The ratio of the emission at 665 nm and at 622 nm was used as indicator of the amount of BCL-2/Bad complexes present.
The resulting data (ratio) were normalized, taking 0% inhibition as the mean value of control measurements (usually 32 data points) where all reagents were included. In this case 50 nl DMSO were used instead of compounds. […] IC50 values were determined by regression analysis based on a 4 parameter equation (minimum, maximum, IC50, Hill; Y=Max+(Min−Max)/(1+(X/IC50)^Hill) using the Screener Software (Genedata).
On the technique in general: Time-resolved FRET reads energy transfer from a long-lived donor to a nearby acceptor.

The subject of assay [4] is SUDHL5 cells. Description: Induction of caspase-3/7 activity in SUDHL5 cells (Assay 4). The class given is cell-based. In a few lines:
as §1

[5] abbreviates: 72 h, CellTiter-Glo; read-out: Antiproli AMO-1 IC50 median.
Setting [6] is: caspase-3/7 induction, 3 h; read-out: Caspase SUDHL10 EC50 (median).
Where [7] appears, read: caspase-3/7 induction, 3 h; read-out: Caspase SUDHL5 EC50 (median).
Where [8] appears, read: Homo sapiens, SU-DHL10, 3 h, caspase-3/7 induction, 3 h; read-out: Caspase SUDHL10 EC50 (median).
Setting [9] is: Homo sapiens, SU-DHL-5, 3 h, caspase-3/7 induction, 3 h; read-out: Caspase SUDHL5 EC50 (median).
The mark [10] stands for this setting: read-out: Caspase SUDHL10 EC50 (median); caspase-3/7 induction, 3 h.
The mark [11] stands for this setting: read-out: Caspase SUDHL5 EC50 (median); caspase-3/7 induction, 3 h.
Setting [12] is: read-out: Antiproli AMO-1 IC50 median; 72 h, CellTiter-Glo.

Structures can show the parent of a compound that is named as a salt. Where two headings read alike, the source gives them in different places.

One may read the IC50 as the concentration needed to halve the response being measured. One may read the EC50 as the concentration giving half of the maximal effect.

BCL-2, sequence (P10415 1-211): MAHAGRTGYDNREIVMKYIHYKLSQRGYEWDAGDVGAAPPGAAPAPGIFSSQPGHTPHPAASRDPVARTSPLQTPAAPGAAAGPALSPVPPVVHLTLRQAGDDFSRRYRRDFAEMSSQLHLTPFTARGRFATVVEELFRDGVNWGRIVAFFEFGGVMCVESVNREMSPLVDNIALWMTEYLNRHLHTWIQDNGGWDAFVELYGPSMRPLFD

For `CCc1c2c(nn1C)C(CCC1CCOCC1)OCCCCn1c(C(=O)O)c(CCCOc3cccc4cc(F)ccc34)c3ccc(Cl)c-2c31` (single isomer, unassigned; enantiomer 2) [Example 62, (−)-4-chloro-3-ethyl-7-{3-[(6-fluoronaphthalen-1-yl)oxy]propyl}-2-methyl-15-[2-(oxan-4-yl)ethyl]-2,10,11,12,13,15-hexahydropyrazolo[4′,3′:9,10][1,6]oxazacycloundecino[8,7,6-hi]indole-8-carboxylic Acid (Enantiomer 2)], the IC50 is 1920 nM in assay [1] (setting [5]) and over 20000 nM in assay [3]. Also, the EC50 in assay [2] (setting [6]) amounted to 6900 nM; in assay [4] (setting [7]), 4200 nM.

With `CCc1c2c(nn1C)C(CCN1CCOCC1)OCCCCn1c(C(=O)O)c(CCCOc3cccc4cc(F)ccc34)c3ccc(F)c-2c31` (single isomer, unassigned; enantiomer 1) [Example 50, (+)-3-ethyl-4-fluoro-7-{3-[(6-fluoronaphthalen-1-yl)oxy]propyl}-2-methyl-15-[2-(morpholin-4-yl)ethyl]-2,10,11,12,13,15-hexahydropyrazolo[4′,3′:9,10][1,6]oxazacycloundecino[8,7,6-hi]indole-8-carboxylic Acid (Enantiomer 1)], the results for the half-inhibitory concentration (IC50) in assay [1] (setting [5]) and in assay [3] were 65.4 nM and over 20000 nM, respectively. Further, the concentration for a half-maximal effect (EC50) in assay [2] (setting [6]) was 26 nM; in assay [4] (setting [7]), 13 nM.

As for `CCc1c2c(nn1C)C(CCC1CCOCC1)OCCCCn1c(C(=O)O)c(CCCOc3cccc4cc(F)ccc34)c3ccc(Cl)c-2c31` (racemic) [Example 60, (rac)-4-chloro-3-ethyl-7-{3-[(6-fluoronaphthalen-1-yl)oxy]propyl}-2-methyl-(15-rac)-[2-(oxan-4-yl)ethyl]-2,10,11,12,13,15-hexahydropyrazolo[4′,3′:9,10][1,6]oxazacycloundecino[8,7,6-hi]indole-8-carboxylic Acid], the IC50 in assay [1] (Homo sapiens, AMO1, 72 h, 72 h, CellTiter-Glo; read-out: Antiproli AMO-1 IC50 median) came to 92.9 nM; in assay [3] it was 14100 nM. The EC50 in assay [2] (setting [8]) is 77 nM; in assay [4] (setting [9]), 50 nM.

`Cc1c2c(nn1C)C(C)OCCCCn1c(C(=O)O)c(CCCOc3cccc4ccccc34)c3cccc-2c31` (single isomer, unassigned; stereoisomer 1) [Example 2, 2,3,15-trimethyl-7-[3-(naphthalen-1-yloxy)propyl]-2,10,11,12,13,15-hexahydropyrazolo[4′,3′:9,10][1,6]oxazacycloundecino[8,7,6-hi]indole-8-carboxylic Acid Trifluoroacetic Acid Salt (Stereoisomer 1)]: the EC50 stood at 2500 nM in assay [2] (setting [10]) and 1200 nM in assay [4] (setting [11]). Moreover, in assay [3], the concentration for half-maximal inhibition (IC50) was over 20000 nM.

In the case of `CCc1c2c(nn1C)C(CCN1CCN(C)CC1)OCCCCn1c(C(=O)O)c(CCCOc3cccc4cc(F)ccc34)c3ccc(Cl)c-2c31` (racemic) [Example 71, (rac)-4-chloro-3-ethyl-7-{3-[(6-fluoronaphthalen-1-yl)oxy]propyl}-2-methyl-(15-rac)-[2-(4-methylpiperazin-1-yl)ethyl]-2,10,11,12,13,15-hexahydropyrazolo[4′,3′:9,10][1,6]oxazacycloundecino[8,7,6-hi]indole-8-carboxylic Acid—N-ethylethanamine Salt (Mixture 2 Od Stereoisomers)], the IC50 was 209 nM in assay [1] (setting [12]) and over 20000 nM in assay [3]. Besides, the half-maximal effective concentration (EC50) in assay [2] (setting [10]) turned out to be 41 nM.

With `Cc1c2c(nn1C)C(CCN1CCOCC1)OCCCCn1c(C(=O)O)c(CCCOc3cccc4ccccc34)c3ccc(F)c-2c31` (single isomer, unassigned; enantiomer 2) [Example 9, 4-fluoro-2,3-dimethyl-15-[2-(morpholin-4-yl)ethyl]-7-{3-[(naphthalen-1-yl)oxy]propyl}-2,10,11,12,13,15-hexahydropyrazolo[4′,3′:9,10][1,6]oxazacycloundecino[8,7,6-hi]indole-8-carboxylic Acid—N-ethylethanamine Salt (Enantiomer 2)], the 50% effective concentration (EC50) in assay [2] (setting [10]) came to 12000 nM; in assay [4] (setting [11]) it was 6400 nM. Moreover, the half-inhibitory concentration (IC50) in assay [3] is over 20000 nM.

On to `Cc1c2c(nn1C)C(C)OCCCCn1c(C(=O)O)c(CCCOc3cccc4ccccc34)c3cccc-2c31` (single isomer, unassigned; stereoisomer 2) [Example 3, 2,3,15-trimethyl-7-[3-(naphthalen-1-yloxy)propyl]-2,10,11,12,13,15-hexahydropyrazolo[4′,3′:9,10][1,6]oxazacycloundecino[8,7,6-hi]indole-8-carboxylic Acid Trifluoroacetic Acid Salt (Stereoisomer 2)], for which the 50% effective concentration (EC50) in assay [2] (setting [10]) and in assay [4] (setting [11]) was over 33000 nM each time. For the same compound, the IC50 in assay [3] was over 20000 nM.

Consider `Cc1c2c(nn1C)C(C)OCCCCn1c(C(=O)O)c(CCCOc3cccc4ccccc34)c3cccc-2c31` (racemic) [Example 1, (rac)-2,3,15-trimethyl-7-[3-(naphthalen-1-yloxy)propyl]-2,10,11,12,13,15-hexahydropyrazolo[4′,3′:9,10][1,6]oxazacycloundecino[8,7,6-hi]indole-8-carboxylic Acid (Mixture of Stereoisomers)], for which the figures for the half-maximal effective concentration (EC50) in assay [2] (setting [8]) and in assay [4] (setting [9]) were 5900 nM and 2300 nM, respectively. The IC50 in assay [3] was over 20000 nM.

In the case of `Cc1c2c(nn1C)C(CCN1CCOCC1)OCCCCn1c(C(=O)O)c(CCCOc3cccc4ccccc34)c3ccc(F)c-2c31` (racemic) [Example 7, (rac)-4-fluoro-2,3-dimethyl-15-[2-(morpholin-4-yl)ethyl]-7-[3-(naphthalen-1-yloxy)propyl]-2,10,11,12,13,15-hexahydropyrazolo[4′,3′:9,10][1,6]oxazacycloundecino[8,7,6-hi]indole-8-carboxylic Acid], the 50% effective concentration (EC50) in assay [2] (setting [8]) turned out to be 360 nM; in assay [4] (setting [9]) it was 200 nM. Moreover, the half-inhibitory concentration (IC50) in assay [3] was over 20000 nM.

Consider `CCc1c2c(nn1C)C(CCN1CCN(C)CC1)OCCCCn1c(C(=O)O)c(CCCOc3cccc4cc(F)ccc34)c3ccc(Cl)c-2c31` (racemic) [Example 68, 4-chloro-3-ethyl-7-{3-[(6-fluoronaphthalen-1-yl)oxy]propyl}-2-methyl-(15-rac)-[2-(4-methylpiperazin-1-yl)ethyl]-2,10,11,12,13,15-hexahydropyrazolo[4′,3′:9,10][1,6]oxazacycloundecino[8,7,6-hi]indole-8-carboxylic Acid—N-ethylethanamine Salt (Mixture 1 of Stereoisomers)], for which the IC50 in assay [1] (setting [12]) was 772 nM; in assay [3], over 20000 nM. For the same compound, in assay [2] (setting [10]), the 50% effective concentration (EC50) was determined as 82 nM.

On to `Cc1c2c(nn1C)C(CCN1CCOCC1)OCCCCn1c(C(=O)O)c(CCCOc3cccc4ccccc34)c3cccc-2c31` (single isomer, unassigned; stereoisomer 2) [Example 6, 2,3-dimethyl-15-[2-(morpholin-4-yl)ethyl]-7-[3-(naphthalen-1-yloxy)propyl]-2,10,11,12,13,15-hexahydropyrazolo[4′,3′:9,10][1,6]oxazacycloundecino[8,7,6-hi]indole-8-carboxylic Acid (Stereoisomer 2)], for which the EC50 was 31000 nM in assay [2] (setting [6]) and 22000 nM in assay [4] (setting [7]). In assay [3], the IC50 was over 20000 nM.

Source of the values: patent US11440923B2, “Substituted macrocyclic indole derivatives” (Bayer Aktiengesellschaft, priority 2017, dated 2022).
